Reference: patent US12220391B2, “Compositions and methods of use of β-hydroxy-β-methylbutyrate (HMB) for modulating autophagy and lipophagy” (Metabolic Technologies, LLC, priority 2016, dated 2025)

Key:
[1] = compared with CaHMB; cited from earlier work
[2] = test system: adipocytes (SGBS); test: Phosphor protein array, SGBS adipocytes; type: cell-based; details: HMB-treated SGBS adipocytes
Method: (§1) Lysates from HMB-treated muscle (HSMM) and adipocytes (SGBS) were analyzed using a phosphor protein array. Many mTOR targets were regulated in both cell system (FIG. 8). Increases in CREB phosphorylation on serine 133 on a signaling protein array using SGBS adipocytes treated HMB was seen (FIG. 8). Thus, the activating phosphorylation of CREB at S133 mediates induction of TFEB in these adipocytes and this pathway results in the upregulation of autophagy.

[3] = test system: caspases-3 and -8 proteases; details: cited from earlier work
[4] = test system: mTOR; details: in vitro, through mTOR phosphorylation; cited from earlier work
[5] = test system: TFEB; test: TFEB gene expression in human primary adipocytes; type: cell-based; details: 1 mM HMB, 96 hours, n=3, p<0.05
From the text: (§2) These transcription factors represent two different autophagy pathways.

[6] = test system: AMPK; test: AMPK activation (phosphorylated AMPK substrates, total AMPK) in primary human adipocytes; type: cell-based; details: 1 mM HMB, 96 hours
Method: A line of subcutaneous preadipocytes isolated from normal humans (non-diabetic controls) was used. These cells differentiate well (see FIG. 4) and provide a good in vitro model for studying effects of HMB on lipophagy. […] Differentiated adipocytes (14 days post confluence) were treated for 4 days with 1 mM HMB supplemented in normal growth medium. Lysates were probed with an antibody (Cell Signal Technologies) directed against AMPK phosphorylated substrates (consensus motif LCRXXpS/pT) to obtain a broad evaluation of AMPK activation and total AMPK levels were also measured. […] The cells were lysed and probed for phosphorylated targets of AMPK and for total AMPK levels (FIG. 5B).

[7] = after HMB is fed; cited from earlier work
[8] = healthy young or old adults; cited from earlier work
[9] = test system: plasma CPK (creatine phosphokinase); details: following intense exercise, within the first 48 hrs of supplementation; cited from earlier work
[10] = test system: differentiated adipocytes; test: Lipolysis in differentiated adipocytes; type: cell-based; details: pretreated 48 hours with 1 mM HMB; basal and 1 uM isoproterenol; n=4
Method: (§3) Differentiated adipocytes were treated with HMB in regular growth medium for determination of lipolysis and gene expression. The adipocytes were pretreated for 48 hours with 1 mM HMB (n=4), resulting in basal and 1 uM isoproterenol stimulated lipolysis (FIG. 3A).

[11] = test system: ubiquitin-proteosome proteolytic pathway; details: muscle protein catabolism stimulated by PIF, LPS and angiotensin II; cited from earlier work
[12] = test system: AMPK; test: AMPK activation in HEK293 cells; type: cell-based; details: similarly treated HEK293 cells (data not shown)
[13] = test system: adipose triglyceride lipase (ATGL); test: ATGL gene expression in differentiated adipocytes; type: cell-based; details: HMB, 96 hours, n=6, p<0.05
Method: as §3

[14] = test system: ATG7; test: ATG7 gene expression (qPCR) in primary human skeletal muscle myotubes; type: cell-based; details: HMB 1 mM, 4 days, HSMM myotubes, qPCR normalized to 36B4, n=6
Method: Cultured primary human skeletal muscle cells (HSMM, Lonza) were grown to confluence and differentiated into myotubes. The cells were then supplemented with HMB (1 mM) for 4 days (n=6 for treatment or control groups) with a medium change every other day. Gene expression (mRNA) was determined at the end of the treatment by quantitative polymerase chain reaction (qPCR). For normalization, the mRNA signal was adjusted to the co-amplified signal of the ribosomal protein 36B4.

[15] = test system: autophagy related protein (ATG7); test: ATG7 gene expression in differentiated adipocytes; type: cell-based; details: HMB, 96 hours, n=6, p<0.05
Method: as §3

[16] = test system: Primary preadipocytes; test: Dual-labeled LC3 (DsRed/GFP) imaging of autophagy in primary preadipocytes; type: cell-based; details: 1 mM HMB, 4 days
Method: A primary adipocyte cell based assay for visualizing HMB activated lipophagy was developed. Primary preadipocytes were cultured on glass coverslips and treated with HMB for four days in regular growth medium. Cells were fixed and mounted with DAPI-containing medium and imaged with 60× objective. Autophagy vesicles are in red with degradation of green signal indicative of autophagy activation (FIG. 7). Nuclei are stained in blue (FIG. 7). A dual-labeled LC3 retroviral expression contrast was used to generate recombinant retrovirus using 293GPG cells. Primary preadipocytes were infected with the viral particles and, starting with four days after infection, selected with geneticin for two weeks prior to the imaging experiments. The LC3 fusion construct labels the autophagosomes and harbors dual signals; DsRed and GFP green probes. In the basal state there is co-localization of the green and red signals resulting in a yellow signal in the merged panel (FIG. 7 top panel with no HMB). When autophagy is activated, the GFP probe is cleaved from LC3 by ATG4 and degraded resulting in loss of the green signal and in absence of the co-localization in the merged panel. The initial studies used preadipocytes infected with the LC3 containing retrovirus and treated or not treated for 4 days with 1 mM HMB (FIG. 7, top: no HMB, bottom +HMB).

[17] = test system: muscle cells (HSMM); test: Phosphor protein array, HSMM muscle cells; type: cell-based, human; details: HMB-treated HSMM muscle cells
Method: as §1

[18] = test system: BNIP3; test: BNIP3 gene expression in human primary adipocytes; type: cell-based; details: 1 mM HMB, 96 hours, n=3, p<0.05
From the text: as §2

CC(C)(O)CC(=O)O [HMB free acid, β-hydroxy-β-methylbutyric acid]
absorption [1]: absorbed quicker | tissue clearance [1]: greater tissue clearance

CC(C)(O)CC(=O)O [HMB, β-hydroxy-β-methylbutyric acid]
CREB phosphorylation (serine 133) [2]: enhanced | HSP27 phosphorylation [2]: enhanced | Yes kinase phosphorylation [2]: Enhanced | activation of p53 [2]: Reduced activation | activation of pSTAT3 [2]: Reduced activation | activity of the mTOR pathway [2]: Reduced activity | activation of caspases-3 and -8 proteases [3]: attenuates | protein synthesis [4]: stimulates | TFEB mRNA levels [5]: increased | total AMPK levels [6]: not significantly changed | AMPK substrate phosphorylation intensity ([6]; densitometry, n=3, p<0.01): significant increase | loss of HMB to urine [7]: 20-50% | side effects [8]: no side effects | muscle damage measured by elevated plasma CPK [9]: reduced | lipolysis (basal and isoproterenol stimulated) [10]: activates | proteolysis [11]: decreases | AMPK substrate phosphorylation increase [12]: not observed | ATGL gene expression [13]: significantly increased | ATG7 gene expression (mRNA) [14]: Significant (p<0.01) upregulation | ATG7 gene expression [15]: significantly increased | size of autophagic puncta [16]: significant increases | LC3 GFP green signal and green/red co-localization ([16]; preadipocytes infected with LC3 retrovirus): Loss of green signals and absence of green/red co-localization | RSK 1/2/3 phosphorylation at the mTOR site (S473) [17]: significant reduction | activation of STAT3 [17]: reduced activation | activation of p53 [17]: reduced activation | mTOR activity [17]: inhibition | p70 S6 kinase phosphorylation at several threonine p-sites [17]: significant reduction | BNIP3 mRNA levels [18]: increased
